Results reported in US20210317092A1 (BAYER PHARMA AKTIENGESELLSCHAFT, priority 2016, published 2021).

Target: T1, human Bradykinin B1 receptor (Homo sapiens, UniProt P46663)
T1 construct: host or cells: CHO-K1
T1 sequence (P46663 1-353): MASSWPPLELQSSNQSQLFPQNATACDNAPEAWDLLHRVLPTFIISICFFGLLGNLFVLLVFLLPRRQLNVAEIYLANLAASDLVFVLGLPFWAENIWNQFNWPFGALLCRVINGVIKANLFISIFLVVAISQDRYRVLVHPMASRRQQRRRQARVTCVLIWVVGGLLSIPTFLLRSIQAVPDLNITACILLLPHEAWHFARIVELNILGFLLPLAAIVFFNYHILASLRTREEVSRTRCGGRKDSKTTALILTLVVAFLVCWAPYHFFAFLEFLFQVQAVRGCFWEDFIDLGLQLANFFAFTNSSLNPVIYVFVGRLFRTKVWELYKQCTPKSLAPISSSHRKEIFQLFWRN
Assay: Calcium flux Assay (FLIPR) with recombinant CHO-K1 cells expressing human Bradykinin B1 receptor, in presence (hB1 IC50) or absence (hB1 free IC50) of 0.1% BSA
Type: cell-based
Settings: in absence of 0.1% BSA, read-out: hB1 free IC50
Description: The potency to inhibit the Bradykinin B1 receptor was determined for the compounds of this invention in a cell-based fluorescent calcium-mobilisation assay. The assay measures the ability of test compounds to inhibit Bradykinin B1 receptor agonist-induced increase of intracellular free Ca^2+ in the cell line expressing Bradykinin B1 receptor. […] The change of the intracellular Ca^2+ concentration is monitored with a fluorescent plate reader FLIPR TETRA® (Molecular Devices).
Calcium flux Assays (FLIPR) with cells expressing human Bradykinin B1 receptor (hB1)
CHO-K1 cell line expressing human Bradykinin B1 receptor was purchased from Euroscreen (Gosselies, Belgium, with reference name hB1-D1). The cells were grown in Nutrient Mixture Ham's F12 (Sigma) containing 10% Foetal bovine serum (Sigma) and 400 μg/mL G418 (Sigma), 5 μg/mL puromycim (Sigma). […]
Cells were seeded in a volume of 50 μL in medium without antibiotics and incubated overnight in a humidified atmosphere with 5% CO2 at 37° C. […] The calcium indicator loaded cells were incubated at 37° C. for 2 hrs. Extracellular dye was then removed and each well was filled with 45 μL of assay buffer. Cell plates were kept in dark until used. Compound examples were assayed at 8 concentrations in triplicate. Serial 10-fold dilutions in 100% DMSO were made at a 100-times higher concentration than the final concentration, and then diluted 1:10 in assay buffer. 5 μL of each diluted compound was added to the well of cell plates (yielding final concentration with 1% DMSO), and incubated for 30 min at 28° C. before the addition of Bradykinin B1 receptor agonist on the FLIPR instrument.
A peptide antagonist Lys-(Des-Arg-Leu)-Bradykinin (Bachem, Brackley) at 20 µM was used to determine the full inhibition as control.
Peak fluorescence was used to determine the response to agonist obtained at each concentration of compound examples by the following equation:
% Response=100*(RFU(compound)−RFU(control))/(RFU(DMSO)−RFU(control)) • RFU means relative fluorescence units. • Control means full inhibition by the peptide antagonist Lys-(Des-Arg-Leu)-Bradykinin at 20 µM.
The response values were plotted against the logarithm of the compound concentrations. The compound examples were tested in triplicates per plate and mean values were plotted in Excel XLfit to determine IC50 values, percentage of maximal inhibition and the Hill slopes.

| Compound | IC50 |
| --- | --- |
| 1-(3,4- difluorophenyl)- N-{3-(1H- tetrazol-5-yl)-4- [3-(2,2,2- trifluoroethyl)- 1H-pyrazol-1- yl]phenyl}cyclopro- panecarboxa- mide [Example 387] | 434 nM |
| 1-(3- chlorophenyl)- N-[3-(1H- tetrazol-5-yl)- 6′- (trifluoromethyl)- 2,3′-bipyridin- 5- yl]cyclopropane carboxamide [Example 217] | 516 nM |
| 1-[2-fluoro-4- (trifluoromethoxy)- phenyl]-N-{3- (1H-tetrazol-5- yl)-4-[3-(2,2,2- trifluoroethyl)- 1H-pyrazol-1- yl]phenyl}cyclopro- panecarboxa- mide [Example 390] | 14 nM |
| 1-[2-fluoro-4- (trifluoromethyl) phenyl]-N-[4- (4-isopropyl-1H- pyrazol-1-yl)-3- (1H-tetrazol-5- yl)phenyl]cyclopro- panecarboxa- mide [Example 399] | 5.16 nM |
| COc1ccc(-c2ccc(NC(=O)C3(c4ccccc4F)CC3(C)C)cc2-c2nnn[nH]2)cc1OC (stereo not shown) [Example 8, N-[3′,4′-dimethoxy-2-(1H-tetrazol-5-yl)biphenyl-4-yl]-1-(2-fluorophenyl)-2,2-dimethylcyclo-propane-carboxamide] | 337 nM |
| COc1ccc(-c2ccc(NC(=O)C3(c4ccc(C(F)(F)F)cc4F)CC3)cc2-c2nnn[nH]2)cc1OC [Example 20, N-[3′,4′-dimethoxy-2-(1H-tetrazol-5-yl)biphenyl-4-yl]-1-[2-fluoro-4-(trifluoromethyl)phenyl] cyclopropane-carboxamide] | 29.2 nM |

Same assay, conditions: in presence of 0.1% BSA, read-out: hB1 IC50

| IC50 | Compound |
| --- | --- |
| 1350 nM | COc1ccc(-c2ccc(NC(=O)C3(C4CCC(C)CC4)CC3)cc2-c2nnn[nH]2)cc1 (mixture of isomers) [Example 114, N-[4′-methoxy-2-(1H-tetrazol-5-yl)biphenyl-4-yl]-1-(4-methylcyclo-hexyl) cyclopropane carboxamide] |
| 122 nM | COc1ccc(-c2ccc(NC(=O)C3(C4CCC(C)CC4)CC3)cc2-c2nnn[nH]2)cc1OC (single isomer, unassigned) [Example 52, N-[3′,4′-dimethoxy-2-(1H-tetrazol-5-yl)biphenyl-4-yl]-1-(4-methylcyclohexyl) cyclopropane carboxamide] |
| 1200 nM | COc1ccc(-c2ccc(NC(=O)C3(C4CCC(C)CC4)CC3)cc2-c2nnn[nH]2)cc1 (single isomer, unassigned) [Example 113, N-[4′-methoxy-2-(1H-tetrazol-5-yl)biphenyl-4-yl]-1-(4-methylcyclo-hexyl) cyclopropane carboxamide] |
| 660 nM | COc1ccc(-c2ccc(NC(=O)C3(c4ccccn4)CC3)cc2-c2nnn[nH]2)cc1OC [Example 9] |
| 68.8 nM | COc1ccc(-c2ccc(NC(=O)C3(c4cccc(F)c4)CC3)cc2-c2nnn[nH]2)cc1OC [Example 10, N-[3′,4′-dimethoxy-2-(1H-tetrazol-5-yl)biphenyl-4-yl]-1-(3-fluorophenyl) cyclopropane-carboxamide] |
| 43 nM | COc1ccc(-c2ccc(NC(=O)C3(c4ccc(F)cc4)CC3)cc2-c2nnn[nH]2)cc1OC [Example 11, N-[3′,4′-dimethoxy-2-(1H-tetrazol-5-yl)biphenyl-4-yl]-1-(4-fluorophenyl) cyclopropane-carboxamide] |
| 86.6 nM | COc1ccc(-c2ccc(NC(=O)C3(c4cc(F)cc(F)c4)CC3)cc2-c2nnn[nH]2)cc1OC [Example 13, 1-(3,5-difluorophenyl)-N-[3′,4′-dimethoxy-2-(1H-tetrazol-5-yl)biphenyl-4-yl]cyclopropane carboxamide] |
| 101 nM | COc1ccc(-c2ccc(NC(=O)C3(c4ccc(F)c(Cl)c4)CC3)cc2-c2nnn[nH]2)cc1OC [Example 14, 1-(3-chloro-4-fluorophenyl)-N-[3′,4′-dimethoxy-2-(1H-tetrazol-5-yl)biphenyl-4-yl]cyclopropane carboxamide] |
| 40.9 nM | COc1ccc(-c2ccc(NC(=O)C3(c4cc(F)cc(Cl)c4)CC3)cc2-c2nnn[nH]2)cc1OC [Example 15, 1-(3-chloro-5-fluorophenyl)-N-[3′,4′-dimethoxy-2-(1H-tetrazol-5-yl)biphenyl-4-yl]cyclopropane carboxamide] |
| 42.9 nM | COc1ccc(-c2ccc(NC(=O)C3(c4ccc(OC(F)(F)F)cc4)CC3)cc2-c2nnn[nH]2)cc1OC [Example 19, N-[3′,4′-dimethoxy-2-(1H-tetrazol-5-yl)biphenyl-4-yl]-1-[4-(trifluoromethoxy)phenyl] cyclopropane-carboxamide] |
| 54.4 nM | COc1ccc(-c2ccc(NC(=O)C3(c4ccc(C(F)(F)F)cc4F)CC3)cc2-c2nnn[nH]2)cc1OC [Example 20, N-[3′,4′-dimethoxy-2-(1H-tetrazol-5-yl)biphenyl-4-yl]-1-[2-fluoro-4-(trifluoromethyl)phenyl] cyclopropane-carboxamide] |
| 367 nM | COc1ccc(-c2ccc(NC(=O)C3(c4cc(F)ccc4F)CC3)cc2-c2nnn[nH]2)cc1OC [Example 21, 1-(2,5-difluorophenyl)-N-[3′,4′-dimethoxy-2-(1H-tetrazol-5-yl)biphenyl-4-yl]cyclopropane carboxamide] |
| 212 nM | COc1ccc(-c2ccc(NC(=O)C3(c4cccc(OC(F)F)c4)CC3)cc2-c2nnn[nH]2)cc1OC [Example 22, 1-[3-(difluoromethoxy)phenyl]-N-[3′,4′-dimethoxy-2-(1H-tetrazol-5-yl)biphenyl-4-yl]cyclopropane carboxamide] |
| 232 nM | COc1ccc(C2(C(=O)Nc3ccc(-c4ccc(OC)c(OC)c4)c(-c4nnn[nH]4)c3)CC2)cc1F [Example 24, N-[3′,4′-dimethoxy-2-(1H-tetrazol-5-yl)biphenyl-4-yl]-1-(3-fluoro-4-methoxyphenyl) cyclopropane-carboxamide] |

Further lines, the compound ahead of its results:

| Compound | IC50 |
| --- | --- |
| 1-(3- chlorophenyl)- N-[4′- (methoxymethyl)- 2-(1H- tetrazol-5- yl(biphenyl-4- yl]cyclopropane carboxamide [Example 123] | 645 nM |
| COc1ccc(-c2ccc(NC(=O)C3(c4ccc(F)cc4F)CC3)cc2-c2nnn[nH]2)cc1OC [Example 2, 1-(2,4-difluorophenyl)-N-[3′,4′-dimethoxy-2-(1H-tetrazol-5-yl)biphenyl-4-yl]cyclopropane carboxamide] | 58.9 nM |
| COc1ccc(-c2ccc(NC(=O)C3(c4ccccc4F)CC3)cc2-c2nnn[nH]2)cc1OC [Example 3, N-[3′,4′-dimethoxy-2-(1H-tetrazol-5-yl)biphenyl-4-yl]-1-(2-fluorophenyl) cyclopropane-carboxamide] | 54.8 nM |
| COc1ccc(-c2ccc(NC(=O)C3(c4ccccc4OC(F)(F)F)CC3)cc2-c2nnn[nH]2)cc1OC [Example 4, N-[3′,4′-dimethoxy-2-(1H-tetrazol-5-yl)biphenyl-4-yl]-1-[2-(trifluoro-methoxy)phenyl] cyclopropane-carboxamide] | 158 nM |
| COc1ccc(-c2ccc(NC(=O)C3(c4ccc(C)cc4)CC3(C)C)cc2-c2nnn[nH]2)cc1OC (stereo not shown) [Example 5, N-[3′,4′-dimethoxy-2-(1H-tetrazol-5-yl)biphenyl-4-yl]-2,2-dimethyl-1-(4-methylpheny) cyclopropane carboxamide] | 1510 nM |
| COc1ccc(-c2ccc(NC(=O)C3(c4ccc(F)cc4)CC3(C)C)cc2-c2nnn[nH]2)cc1OC (stereo not shown) [Example 6] | 1370 nM |
| COc1ccc(-c2ccc(NC(=O)C3(c4ccccc4)CC3(C)C)cc2-c2nnn[nH]2)cc1OC (stereo not shown) [Example 7, N-[3′,4′-dimethoxy-2-(1H-tetrazol-5-yl)biphenyl-4-yl]-2,2-dimethyl-1-phenylcyclo-propane-carboxamide] | 1350 nM |
| COc1ccc(-c2ccc(NC(=O)C3(c4ccccc4F)CC3(C)C)cc2-c2nnn[nH]2)cc1OC (stereo not shown) [Example 8, N-[3′,4′-dimethoxy-2-(1H-tetrazol-5-yl)biphenyl-4-yl]-1-(2-fluorophenyl)-2,2-dimethylcyclo-propane-carboxamide] | 347 nM |
